This is an account of results in paper PMC5855801, “Benzothiophenone Derivatives Targeting Mutant Forms of Estrogen Receptor-α in Hormone-Resistant Breast Cancers” (International Journal of Molecular Sciences, 2018).

One test addresses ERβ LBD (Homo sapiens, UniProt Q92731). Nature of the test: TR-FRET coactivator peptide displacement assay with ERβ-LBD. It counts as biochemical. The following applies: purified ERβ LBD. An excerpt: Given that tamoxifen acts as a pure antagonist of ERβ [34], the effect of VPC-16606 on ERβ and its corresponding implications in breast cancer will also need to be evaluated. Moreover, the role of ERβ in breast cancer biology is not yet clear, with some evidence pointing towards ERβ exerting proliferating effects in the absence of ERα [36].
Supplementary Materials: Benzothiophenone Derivatives Targeting Mutant Forms of Estrogen Receptor-α in Hormone-Resistant Breast Cancers
Figure S1. Effect of VPC-16606 on viability of PC3 cells as measured in the Presto Blue assay. […]
Figure S2. TR-FRET Assay showing displacement of Fluorescein labelled PGC1 α peptide by VPC-16606 upon incubation with ER β-LBD. OHT was used at 1µM. Error bars represent standard deviation for two independent experiments performed in triplicates. […]
(Time-resolved FRET reads energy transfer from a long-lived donor to a nearby acceptor.)

In test [1] the test system is mutant ERα (L536Q, Y537S, Y537C, Y537N, D538G, Y537S/D538G, S463P/Y537N). Nature of the test: Luciferase reporter assay with mutant ERα in transfected MDA-MB-231 cells. It counts as cell-based, human. Particulars: all seven mutant forms, two-fold dilution starting at 50 µM, read-out: IC50 against constitutively-active mutant forms of ERα (luciferase). On the procedure:
Figure 5 Predicted MD simulations and experimental effect of VPC-16606 on mutant forms of ERα. […] (C) E2 responsiveness of the synthesized mutants. (D) pcDNA3.1 plasmid encoding either the full-length WT or mutant forms of ERα was transfected into MDA-MB-231 cells along with the 3X-ERE-TATA luciferase reporter plasmid. The cells were treated with a two-fold dilution of VPC-16606 starting at 50 µM. […] Data points are expressed as the percentage of luciferase activity relative to DMSO control. Data were fitted using the log10 of concentration of the inhibitors vs. the response with GraphPad Prism 6. Error bars indicate the standard error of the mean (SEM) for 3 independent experiments performed in triplicates.
To test this hypothesis, a site-directed mutagenesis study was initiated on WT-ERα. MDA-MB-231 cells that were transfected with plasmids encoding either WT or mutant ERα (L536Q, Y537S, Y537C, Y537N, D538G, Y537S/D538G, S463P/Y537N) along with an E2-responsive luciferase reporter plasmid and a constitutively-active Renilla reporter plasmid. The cells were treated with VPC-16606 with two-fold dilution starting at 50 µM. […] This is particularly important because they corroborate the idea that such clinically-relevant mutant forms of the receptor, which cause the receptor to be E2 independent, can be inhibited by targeting an alternative functional site on the receptor. […]
For orientation: A reporter such as luciferase makes a cellular process visible.

For another test, the target named is T1, ERα (Homo sapiens, UniProt P03372).
T1 construct: endogenous in cells; host or cells: T47DKBluc (ATCC CRL-2865)
T1 sequence (P03372 1-595): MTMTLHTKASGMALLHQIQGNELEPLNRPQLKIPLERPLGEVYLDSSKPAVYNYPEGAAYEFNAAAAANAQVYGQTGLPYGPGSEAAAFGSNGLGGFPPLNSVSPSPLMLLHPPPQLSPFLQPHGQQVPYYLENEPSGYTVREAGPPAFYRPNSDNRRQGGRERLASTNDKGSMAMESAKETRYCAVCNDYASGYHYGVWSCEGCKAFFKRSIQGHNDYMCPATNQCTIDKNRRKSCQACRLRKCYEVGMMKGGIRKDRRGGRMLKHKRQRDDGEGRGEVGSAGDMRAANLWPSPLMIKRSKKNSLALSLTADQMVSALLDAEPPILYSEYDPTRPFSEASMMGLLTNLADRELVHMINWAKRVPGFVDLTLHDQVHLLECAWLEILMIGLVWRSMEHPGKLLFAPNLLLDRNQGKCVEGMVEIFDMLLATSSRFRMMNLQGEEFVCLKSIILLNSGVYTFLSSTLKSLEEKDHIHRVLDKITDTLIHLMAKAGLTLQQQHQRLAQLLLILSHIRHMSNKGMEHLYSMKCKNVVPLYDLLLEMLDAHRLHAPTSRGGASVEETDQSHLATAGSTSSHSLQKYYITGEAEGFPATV
Nature of the test: Estrogen-responsive luciferase reporter transcriptional assay in T47DKBluc cells. It counts as cell-based. Particulars: 1 nM E2, 24 h, read-out: IC50 against ERα in the luciferase reporter-based transcriptional assay. Here is the method:
T47DKBluc cells (ATCC® CRL-2865^TM, Manassa, VA, USA) stably transfected with a 3X-ERE–promoter–luciferase reporter gene construct, pGL2.TATA.Inr.luc.neo [38], were used to measure inhibition of ERα-driven transcriptional activity of the luciferase reporter.
This assay was performed as described previously. Briefly, ERα-positive T47DKBluc cells were grown in phenol red-free RPMI 1640 supplemented with 10% CSS for 5 days. The cells were seeded on 96-well plates (2 × 10^4 cells/well). After 24 h, the cells were treated with test compounds in the presence of 1 nM E2. Twenty four hours post-treatment, the cells were lysed with 50 μL of 1× passive lysis buffer (Promega, Madison, WI, USA). Twenty microliters of the lysate from each treatment were transferred onto a white, 96-well, flat-bottomed plate (Corning Life Sciences, Corelle, NY, USA), and the luminescent signal was measured after adding 50 μL of the luciferase assay reagent (Promega, Madison, WI, USA) on a Tecan M200Pro microplate reader (Tecan, Menedorf, Switzerland). Differences in growth were normalised against total protein concentration, which was measured by the bicinchoninic acid (BCA) assay.

The subject of test [2] is ERα-dependent genes pS2, PR, Cyclin D1 and CDC2. Nature of the test: qRT-PCR of ERα-dependent genes in TamR3 cells. The following applies: TamR3, 24 h, 1 nM E2. The class given is cell-based, human. On the procedure:
mRNA levels were analyzed after treatment of MCF7 and TamR3 cells for 24 h with the test compounds as described previously. The fold change in expression of the genes was calculated using the 2^−ΔΔCt method with GAPDH as the internal control.

Sequence of ERβ LBD (Q92731 264-498 limits assumed, species assumed): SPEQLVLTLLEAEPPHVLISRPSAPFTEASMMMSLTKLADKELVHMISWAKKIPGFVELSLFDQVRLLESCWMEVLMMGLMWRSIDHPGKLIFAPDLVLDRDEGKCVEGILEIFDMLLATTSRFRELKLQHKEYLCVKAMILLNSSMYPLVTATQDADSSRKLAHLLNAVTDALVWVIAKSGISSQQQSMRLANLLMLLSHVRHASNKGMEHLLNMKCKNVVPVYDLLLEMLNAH

In the case of `CC(=O)N(/N=C1\Sc2c(C)cccc2C1=O)c1ccccc1Cl` [VPC-16606], the “Displacement of fluorescein labelled PGC1α peptide from ERβ LBD (TR-FRET)” value at ERβ LBD was “resulted in peptide displacement”. Also, the IC50 in test [1] is 0.5 to 1 µM; at ERα it was 0.3 µM. Further, in test [2], the “mRNA levels of ERα-dependent genes pS2, PR, Cyclin D1 and CDC2” value is “significantly downregulates”.

In general, IC50 refers to the point on the concentration scale where inhibition reaches its midpoint.
